The subject of data set [1] is AcsA. The experiment in a line: Acyl-CoA ligase activity assay. It is filed as biochemical, Synechococcus sp. PCC 7002. As to conditions: 2 mM organic acid, 500 nM AcsA, CoA consumed in 4 min relative to acetate. How it is done: Acyl-CoA ligase purification: Escherichia coli BL21 containing plasmid pET28b with acsA were grown in 50 mL of LB to an OD600 nm of 0.6 and induced with 1 mM IPTG. The induced culture was shaken at 37° C. for 3 hrs. The culture was centrifuged and the resulting cell pellet was frozen at −20° C. The cell pellet was processed with Novagen BugBuster Protein Extraction Reagent (Part No. 70584-3). The resulting soluble protein fraction was used for His-tag purification using Ni-NTA agarose beads (Qiagen) and Pierce 0.8-mL centrifugation columns (Part No. 89868). Washes were done with 50 mM NaH2PO4, 300 mM NaCl, and 30 mM imidizole pH 8.0. The his-tagged protein was eluted with 50 mM NaH2PO4, 300 mM NaCl, and 250 mM imidizole pH 8.0. The insoluble fraction from the protein extraction was washed twice with BugBuster reagent followed by incubation with 400 μL 8M urea, 100 mM Tris-HCl, and 100 mM β-mercaptoethanol pH 8.2 for 30 min. The resulting solution was centrifuged at 16,000×g and the supernatant was collected. Protein fractions were run on a SDS-PAGE gel. His-tag purified protein fractions used in the acyl-CoA ligase assay were concentrated and buffered exchanged using an Amicon Ultra-4 centrifugation column. The buffer used for enzyme storage contained 0.1M NaH2PO4, 1 mM EDTA, and 10% v/v glycerol.
Acyl-CoA ligase activity assay: Acyl-CoA ligase activity was determined by measuring the loss of free Coenzyme A (CoA) over time using Ellman's reagent. (Riddles P W, Blakeley R L, & Zerner B (1979) Ellman's reagent: 5,5′-dithiobis(2-nitrobenzoic acid)—a reexamination. Analytical Biochemistry 94(1):75-81.) The enzyme reaction contained 10 mM ATP, 8 mM MgCl2, 3 mM CoA, 0.1 M NaH2PO4, 1 mM EDTA, and 2 mM of the organic acid species. The concentration of AcsA in the reaction was 500 nM. Relative activity was determined by the amount of CoA consumed in 4 min relative to an acetate control.

Data set [2] concerns Synechococcus sp. PCC 7002. The experiment in a line: Minimum inhibitory concentration of organic acids / growth inhibition. It is filed as cell-based. Particulars: for MIC: Synechococcus; for Minimum inhibitory concentration: Table 3. From the text: (§1) One aspect of the increased tolerance to organic acids is an increase in the minimal inhibitory concentration (MIC) of a particular organic acid compared to a corresponding microorganism. MIC is the lowest concentration of an agent that will inhibit growth of a microorganism. An MIC can be determined by titrating the agent in the growth medium of the microorganism. The lowest concentration of the agent in which the microorganism is no longer able to grow is the MIC. Methods of culturing microorganisms and of detecting their growth are well known in the art and are not discussed in detail herein.
(§2) The minimum inhibitory concentrations (MIC) for PCC 7002, Synechococcus sp. PCC 7942, and Synechocystis sp. PCC 6803 were determined for acrylic acid, 3HP, and propionic acid at a pH of about 8 (Table 1).

Data set [3] relates to PCC 7002 acsA:BC glpK::acsA aadA. Put plainly: Minimum inhibitory concentration, acsA complementation strain. The class given is cell-based, Synechococcus sp. PCC 7002. As to conditions: Synechococcus, read-out: Minimum inhibitory concentration. How it is done:
(§3) Deletion and complementation studies were performed in various Synechococcus spp. and Synechocystis spp. Replacement of the gene acsA in Synechococcus sp. […] An identical level of increase was observed when acsA was replaced with a 20 base-pair barcode sequence. This phenotype was complemented in an acsA deletion strain by expression of acsA under the native promoter in another locus on the chromosome (glpK).

Data set [4] relates to PCC 6803 sll0542::KmR. Put plainly: Minimum inhibitory concentration, deletion strain. The class given is cell-based, Synechocystis sp. PCC 6803. As to conditions: Synechocystis; Table 3. How it is done: as §3
(§4) Homologous genes were identified in the cyanobacteria Synechocystis sp. PCC 6803 (s110542; SEQ ID NOS:3 and 4) and Synechococcus sp. PCC 7942 (SYNPCC7942—1342; SEQ ID NOS:5 and 6). […] When selecting for growth of Synechocystis sp. PCC 6803 on 50 μM acrylic acid, the mutation frequency was 2×10^−6.

Data set [5] deals with PCC 7002 acsA::aadA. Put plainly: microbe, parasite or virus in culture. Particulars: for Increase in MIC on functional deletion of the acsA gene product: Synechococcus sp. PCC 7002, pH of about 8. It is filed as cell-based, Synechococcus sp. PCC 7002. How it is done: This hypothesis was tested by creating a knockout mutant of the acsA gene. This knockout was created by transforming wild type PCC 7002 with a DNA construct that would replace the acsA gene with an antibiotic resistance marker through homologous recombination. The resulting mutant, ΔacsA, was challenged with concentrations of acrylic acid, 3HP, and propionic acid above WT PCC 7002 MIC levels.
Deletion and complementation studies were performed in various Synechococcus spp. and Synechocystis spp. Replacement of the gene acsA in Synechococcus sp.

Data set [6] deals with Synechocystis sp. PCC 6803. Put plainly: Minimum inhibitory concentration of organic acids. Particulars: for MIC: Synechocystis; for Minimum inhibitory concentration: Table 3. It is filed as cell-based.
Text: as §1
(§5) Because of this, the toxicity of organic acids generally increases with the hydrophobicity of the compound [35]. The minimum inhibitory concentrations (MIC) for PCC 7002, Synechococcus sp. PCC 7942, and Synechocystis sp. PCC 6803 were determined for acrylic acid, 3HP, and propionic acid at a pH of about 8 (Table 1). […] The low MIC for acrylic acid explains why cultures grown with DMSP become growth inhibited. Cultures with DMSP only show growth inhibition when the accumulating acrylic acid concentration reaches inhibitory concentrations.
as §4

Data set [7] has as its system Synechococcus sp. PCC 7942. Put plainly: Minimum inhibitory concentration of organic acids. The class given is cell-based. As to conditions: for MIC: Synechococcus; for Minimum inhibitory concentration: Table 3.
Text: as §1, §5

For data set [8] the following is noted: cited from earlier work.
Data set [9] relates to PCC 7002 acsA::BC. The experiment in a line: Minimum inhibitory concentration, acsA barcode replacement strain. It is filed as cell-based, Synechococcus sp. PCC 7002. Particulars: Synechococcus, read-out: Minimum inhibitory concentration. As to the method:
as §3

For data set [10], the system named is PCC 7002 A^+. The experiment in a line: Minimum inhibitory concentration, spontaneous acrylic acid-tolerant mutant. It is filed as cell-based, Synechococcus sp. PCC 7002. As to the method:
as §2

Data set [11] concerns PCC 7002 acsA::BC glpK::acsAW49L aadA. The experiment in a line: Minimum inhibitory concentration, acsAW49L complementation strain. Particulars: Synechococcus, read-out: Minimum inhibitory concentration. It is filed as cell-based, Synechococcus sp. PCC 7002. As to the method: as §3
The mark [12] stands for this setting: SP.PCC7002, read-out: Minimum inhibitory concentration.
[13] abbreviates: SP.PCC6803, read-out: Minimum inhibitory concentration.
Setting [14] is: SP.PCC7942, read-out: Minimum inhibitory concentration.

Values after ≈ are worked out from the molar mass of the structure shown. Where two headings read alike, the source gives them in different places.

For the compound `CC(=O)O` [acetate, reference compound], in data set [1], the “Acyl-CoA ligase activity of AcsA towards substrate” value (shortened to “Acyl-CoA ligase activity”) is “has an activity”.

For `O=C(O)CCO` [3HP, 3-hydroxypropionic acid], the MIC in data set [2] (setting [12]) is 10000 µM (≈ 901 µg/mL); in [3], 15000 µM (≈ 1350 µg/mL); in data set [4], less than 50000 µM; in [6] (setting [13]) it was more than 35000 µM; in data set [7] (setting [14]), 2000 µM (≈ 180 µg/mL). Besides, the values for the Minimum inhibitory concentration in data set [2] and in data set [7] were 10000 µM (≈ 901 µg/mL) and 2000 µM (≈ 180 µg/mL), respectively. The “Acyl-CoA ligase activity” value in data set [1] is reported as “has an activity”. In data set [5], the “Increase in MIC on functional deletion of the acsA gene product” value (shortened to “Increase in MIC on functional deletion”) is given as not below 26 fold. Further, the “Concentration at which the ΔacsA mutant was able to grow without inhibition” value in [5] (ΔacsA mutant) was more than 500 mM.

In the case of `C=CC(=O)O` [acrylic acid], the MIC in data set [2] (setting [12]) came out at 25 µM (≈ 1.8 µg/mL); in data set [3], 15 µM (≈ 1.08 µg/mL); in [4] it was 70000 µM (≈ 5040 µg/mL); in data set [5] (Synechococcus, read-out: Minimum inhibitory concentration) it was 70000 µM; in data set [6] (setting [13]), 50 µM (≈ 3.6 µg/mL); in data set [9], 70000 µM (≈ 5040 µg/mL). The MIC in data set [7] (setting [14]) worked out at 3 µM (≈ 0.216 µg/mL); in data set [10] (Synechococcus, Table 1, strain isolated from agar plate containing 5 mM acrylic acid), 7000 µM (≈ 504 µg/mL); in data set [11] it was 7000 µM (≈ 504 µg/mL). The values for the Minimum inhibitory concentration in [2], in [6] and in data set [7] were 25 µM (≈ 1.8 µg/mL), 50 µM (≈ 3.6 µg/mL) and 3 µM (≈ 0.216 µg/mL), respectively. For the same compound, the Inhibitory concentration result in data set [2] (growth by OD730) is “less than 5 mM”. In addition, the “pH dependence of toxicity” value in data set [2] (toxicity increasing with decreasing pH) is reported as “pH dependent”. Further, the “Acyl-CoA ligase activity” value in data set [1] is on record as “has an activity”. In addition, the “Increase in MIC on functional deletion” value in [5] is on record as not below 2.800 fold. Besides, the pKa – broadly, the pH at which an ionisable group is half protonated – in data set [8] is on record as 4.35. Also, in [10] (PCC 7002 A^+ vs WT), the “Increase in tolerance over WT PCC 7002 MIC values” is reported as “about 280 fold”.

With `CCC(=O)O` [propionic acid], the MIC in data set [2] (SP.PCC7002, Table 1, pH of about 8, no increase in OD730, read-out: Minimum inhibitory concentration) came out at 4000 µM (≈ 296 µg/mL); in data set [6] (SP.PCC6803, Table 1, pH of about 8, no increase in OD730, read-out: Minimum inhibitory concentration) it was 250 µM (≈ 18.5 µg/mL); in [7] (SP.PCC7942, Table 1, pH of about 8, no increase in OD730, read-out: Minimum inhibitory concentration), 250 µM (≈ 18.5 µg/mL). Also, the figures for the Minimum inhibitory concentration in data set [2], in data set [6] and in data set [7] were 4000 µM (≈ 296 µg/mL), 250 µM (≈ 18.5 µg/mL) and 250 µM (≈ 18.5 µg/mL), respectively. Besides, the “Acyl-CoA ligase activity” value in [1] is on record as “has an activity”. For the same compound, the “Increase in MIC on functional deletion” value in [5] is recorded as not below 100 fold.
